Key:
Hep G2/C3A-cells = conditions: 0.03 mM added to the medium; experimental stage
Method: Synthesis Capacity, for Example Micro-Albumin and Other Protein Synthesis of the Hep G2/C3A Cells (13).
The HepG2/C3A-cells are seeded in 24 well cell culture plates in a concentration of 250,000 cells/well for three days and 0.5 ml plasma from test persons+0.25 ml medium is added. The cells are then rinsed once with medium and after that are incubated with fresh medium (1 ml) for three days. After that micro albumin is determined nephelometrically from 0.2 ml cell culture medium and duplicated (+medium control). Each test batch with plasma from test persons is also duplicated.
Consequently the test period can also be shortened to 48 hours and the cells release measurable quantities of fibrinogen and transferrine (plasma proteins) that can be measured and duplicated in 200 μl cell culture medium.

cytochrome P450 1A2 = conditions: Hep G2/C3A-cells; cited from earlier work

## NCCC[C@H](N)C(=O)O.O=C(O)CCC(=O)C(=O)O [ornithine alpha-cetoglutarates]
Hep G2/C3A-cells
  synthesis capacity of the Hep G2/C3A-cells: increased

## Cc1ccc2cc3c(ccc4ccccc43)c3c2c1CC3 [methylcholanthrene, 3-methylcholanthren]
Cytochrome P450 1A2
  activity of cytochrome P450 1A2 after induction, relative to the initial value: 40 times the initial value
